Results as given in patent publication US20210223237A1, “COMPOSITIONS AND METHODS FOR STUDYING DRUG METABOLISM” (Boehringer Ingelheim International GmbH, priority 2020, published 2021).
Marks after values point to notes of the source that are not given here.

Tests used:
[1] = Non-specific binding of compounds to magnetizable beads alone; conditions: 30 min incubation of beads (5.3×10^9 beads), bioanalysis of supernatant
UGT2B7 = target: T1, UGT2B7 (Homo sapiens, UniProt P16662); experiment: in vitro; conditions: for microsomal CLint: pH 7.8; for Km: pH 7.8, Km, Michaelis-Menten modeling
T1 sequence (P16662 24-529): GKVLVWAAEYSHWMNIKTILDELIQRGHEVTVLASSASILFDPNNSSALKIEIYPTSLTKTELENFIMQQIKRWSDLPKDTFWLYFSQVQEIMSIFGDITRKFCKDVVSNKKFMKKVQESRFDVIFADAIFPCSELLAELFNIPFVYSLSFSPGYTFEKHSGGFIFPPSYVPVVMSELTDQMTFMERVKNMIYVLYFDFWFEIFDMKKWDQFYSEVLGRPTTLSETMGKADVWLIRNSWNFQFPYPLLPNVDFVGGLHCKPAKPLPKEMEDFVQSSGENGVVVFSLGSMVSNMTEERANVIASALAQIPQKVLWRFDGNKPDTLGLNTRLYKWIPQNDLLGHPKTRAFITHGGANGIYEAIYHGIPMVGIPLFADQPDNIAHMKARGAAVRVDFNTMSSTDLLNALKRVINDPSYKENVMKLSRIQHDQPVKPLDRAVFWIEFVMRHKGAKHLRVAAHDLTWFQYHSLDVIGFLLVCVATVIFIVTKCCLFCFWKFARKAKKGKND

in vitro [2] = conditions: human
[3] = Microsomal binding (fu,mic) using HLM-beads; conditions: for fu,mic: HLM-beads, compound 1.0 μM, (SD)
in vitro [4] = conditions: human; remark: listed apart in the source
[5] = Microsomal binding (fu,mic) using rapid equilibrium dialysis (RED); conditions: compound 1.0 μM, (SD)
[6] = cited from earlier work
not read = substrate: CCN(CC)Cc1cc(Nc2ccnc3cc(Cl)ccc23)ccc1O; experiment: not read; conditions: other: HLM suspensions; substrate inhibition modeling; pH 7.4
[7] = human liver microsomes bound to magnetic beads (HLM-beads)

OCc1ncc2n1-c1ccc(Cl)cc1C(c1ccccc1F)=NC2 [1′OH midazolam, 1′hydroxymidazolam]
non-specific binding to the beads [1]: not observed

Cc1cn([C@H]2C[C@H](N=[N+]=[N-])[C@@H](CO)O2)c(=O)[nH]c1=O [AZT, zidovudine]
microsomal CLint (UGT2B7; human liver microsomes (suspension)): 0.44 µL/min/mg
microsomal CLint (UGT2B7): 2.8 µL/min/mg
Km (UGT2B7; HLM suspensions): 1400 ± 0.1 µM
Km (UGT2B7; HLM-beads): 490 ± 0.06 µM

Cc1nnc2n1-c1ccc(Cl)cc1C(c1ccccc1)=NC2 [Alprazolam]
fraction unbound at 6 h, 1 μM (in vitro [2]; microsomes): 0.98
fu,mic ratio HLM-beads/RED ([3]; HLM 0.50 mg/ml): 0.77
fu,mic ratio HLM-beads/RED ([3]; HLM 1.0 mg/ml): 0.66
fu,mic ratio HLM-beads/RED ([3]; HLM […]): 0.82
fu,mic ([3]; HLM 0.50 mg/ml): 0.78 (0.06)
fu,mic ([3]; HLM 1.0 mg/ml): 0.68 (0.07)
fraction unbound at 5 min, 1 μM (in vitro [4]; microsomes): 0.81
fu,mic ([5]; HLM 0.50 mg/ml): 1.0 (0.1)
fu,mic ([5]; HLM 1.0 mg/ml): 1.0 (0.1)

CN(C)CCCN1c2ccccc2Sc2ccc(Cl)cc21 [Chlorpromazine, chlorpromazine]
fu,mic ([3]; HLM 0.50 mg/ml): 0.11 (0.02)
fu,mic ([3]; HLM […]): 0.79 (0.13)

O=C(O)Cc1ccccc1Nc1c(Cl)cccc1Cl [Diclofenac, diclofenac]
fraction unbound at 6 h, 1 μM (in vitro [2]; microsomes): 0.98
fu,mic ([3]; HLM 0.50 mg/ml): 0.92 (0.03)^a
fraction unbound at 5 min, 1 μM (in vitro [4]): 0.94
fraction unbound at 5 min, 1 μM (in vitro [4]; [7]): 0.87

COc1ccc([C@@H]2Sc3ccccc3N(CCN(C)C)C(=O)[C@@H]2OC(C)=O)cc1 [Diltiazem, diltiazem]
fraction unbound at 6 h, 1 μM (in vitro [2]; microsomes): 0.96
fu,mic ratio HLM-beads/RED ([3]; HLM 0.50 mg/ml): 1.5
fu,mic ratio HLM-beads/RED ([3]; HLM 1.0 mg/ml): 1.3
fu,mic ratio HLM-beads/RED ([3]; HLM […]): 1.0
fraction unbound at 5 min, 1 μM (in vitro [4]): 0.99
fraction unbound at 5 min, 1 μM (in vitro [4]; [7]): 0.97
pKa [6]: 9.4

CN(C)CCCN1c2ccccc2CCc2ccccc21 [Imipramine, imipramine]
fraction unbound at 6 h, 1 μM (in vitro [2]; microsomes): 0.4

CCC(C)n1ncn(-c2ccc(N3CCN(c4ccc(OCC5COC(Cn6cncn6)(c6ccc(Cl)cc6Cl)O5)cc4)CC3)cc2)c1=O (stereo not shown) [Itraconazole, itraconazole]
fraction unbound at 6 h, 1 μM (in vitro [2]): 0.025
fu,mic ratio HLM-beads/RED ([3]; HLM 0.50 mg/ml): 2.8
fu,mic ratio HLM-beads/RED ([3]; HLM 1.0 mg/ml): 2.9
fu,mic ratio HLM-beads/RED ([3]; HLM […]): 0.84
fu,mic ([3]; HLM 0.50 mg/ml): 0.10 (0.01)
fu,mic ([3]; HLM […]): 0.24 (0.04)
fraction unbound at 5 min, 1 μM (in vitro [4]; [7]): 0.073
fu,mic ([5]; pre-soak method, HLM 0.50 mg/ml): 0.036 (0.005)^b
fu,mic ([5]; pre-soak method, HLM […]): 0.29 (0.07)^b

CCCCNC(=O)NS(=O)(=O)c1ccc(C)cc1 [Tolbutamide, tolbutamide]
pKa [6]: 5.2

B1: CYP2C8 (Homo sapiens) (protein)
chain: MEPFVVLVLCLSFMLLFSLWRQSCRRRKLPPGPTPLPIIGNMLQIDVKDICKSFTNFSKVYGPVFTVYFGMNPIVVFHGYEAVKEALIDNGEEFSGRGNSPISQRITKGLGIISSNGKRWKEIRRFSLTTLRNFGMGKRSIEDRVQEEAHCLVEELRKTKASPCDPTFILGCAPCNVICSVVFQKRFDYKDQNFLTLMKRFNENFRILNSPWIQVCNNFPLLIDCFPGTHNKVLKNVALTRSYIREKVKEHQASLDVNNPRDFIDCFLIKMEQEKDNQKSEFNIENLVGTVADLFVAGTETTSTTLRYGLLLLLKHPEVTAKVQEEIDHVIGRHRSPCMQDRSHMPYTDAVVHEIQRYSDLVPTGVPHAVTTDTKFRNYLIPKGTTIMALLTSVLHDDKEFPNPNIFDPGHFLDKNGNFKKSDYFMPFSAGKRICAGEGLARMELFLFLTTILQNFNLKSVDDLKNLNTTAVTKGIVSLPPSYQICFIPV
Km (not read): 0.732 ± 0.11 µM
Vmax/Km (not read): 1340 µL/min/mg
